Target: T1, horseradish peroxidase (HRP) (Armoracia rusticana, UniProt P00433)
T1 construct: gene PRXC1A; free or encapsulated in HOF-PTBA
T1 sequence (P00433 31-338): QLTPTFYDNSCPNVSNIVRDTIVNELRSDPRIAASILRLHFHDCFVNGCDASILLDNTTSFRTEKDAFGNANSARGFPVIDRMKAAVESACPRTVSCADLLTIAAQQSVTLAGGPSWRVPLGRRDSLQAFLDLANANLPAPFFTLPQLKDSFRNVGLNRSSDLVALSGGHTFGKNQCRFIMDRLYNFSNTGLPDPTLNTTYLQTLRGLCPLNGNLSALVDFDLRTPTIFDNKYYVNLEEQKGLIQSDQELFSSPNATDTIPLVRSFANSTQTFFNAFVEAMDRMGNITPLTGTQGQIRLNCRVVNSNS
Test: GOx-HRP cascade, UV-vis of oxidised TMB
Type: biochemical
Conditions: co-substrate H2O2 made by GOx from glucose; free GOx&HRP mixture and GOx&HRP@HOF-PTBA both tested

In the case of `Cc1cc(-c2cc(C)c(N)c(C)c2)cc(C)c1N` [TMB], the “GOx-HRP cascade, UV-vis of oxidised TMB” value is reported as “H2O2 subsequently acting as a substrate for HRP to catalyze the oxidation of TMB”.

From PMC11440381, “Facile and scale-up syntheses of high-performance enzyme@meso-HOF biocatalysts” (Chemical Science, 2024)
